Laboratory results reported in PubChem BioAssay AID1963961 (Molecular Pharmacology Branch, DTP, NCI, 2024).

Test system: K98450-129-R-PDC multicell spheroids, viability
Assay: Anticancer human tumor K98450-129-R-PDC patient-derived colon adenocarcinoma cell line growth inhibition [PI3K]
Conditions: for IC50: curve of first compound; for viability, T/C: stronger effect = lower value
Excerpt: Combinatorial screen of targeted agents with the PI3K inhibitors inavolisib, alpelisib, duvelisib, and copanlisib in multi-cell type tumor spheroids
A high-throughput screen of multi-cell type tumor spheroids was designed to identify active combinations of targeted small molecules and PI3K pathway inhibitors. Complex spheroids include a stromal component modeled by human endothelial cells (HUVEC) and fibroblasts modeled by human mesenchymal stem cells (MSCs). The concentration ranges selected for each drug and investigational agent were based upon clinically achievable concentrations if the clinical Cmax of the agent was known.
Compounds. The drugs and investigational agents: inavolisib (NSC800729), alpelisib (NSC765974), duvelisib (NSC772469), copanlisib (NSC816437), ipatasertib (NSC767898), afuresertib (NSC778305), talazoparib (NSC767125), sapanisertib (NSC764658), selumetinib (NSC741078), tovorafenib (DAY101, NSC766906), vemurafenib (NSC761431), ravoxertinib (NSC781343), sotorasib (NSC818433), MRTX1133 (NSC 836407), abemaciclib (NSC 768073), palbociclib (NSC758247), venetoclax (NSC 766270), SY5609 (NSC837396), enzalutamide (NSC755605), and darolutamide (NSC825331), were obtained from the National Cancer Institute (NCI) Developmental Therapeutics Program Chemical Repository. The FDA-approved anticancer drug set is available from the NCI Developmental Therapeutics Program. […] The stock solutions were prepared in dimethyl sulfoxide (DMSO, Sigma-Aldrich, St. Louis, MO, cat. D2650) at 800-fold the tested concentration and stored at -70 degrees C prior to their use. All drugs and investigational agents were tested over a range starting from a high concentration at or near the clinical Cmax and decreasing in half-log increments. If the clinical Cmax for an agent had not been determined, the highest concentration tested was 10 microM.
Cell Culture. All cells were maintained in an incubator at 37 degrees C and 5% CO2 with 95% humidity. The PDC lines were cultured according to standard operating procedures established by the NCI PDMR (https://pdmr.cancer.gov/sops/default.htm). All PDCs were thawed and cultured in Matrigel-coated flasks prepared with a working solution of 1X Ham's F-12 nutrient mix, without supplementation (Invitrogen, Waltham, MA, cat. 11765054), 100 U/mL penicillin-streptomycin (Invitrogen, cat. 15140122), and 2.5% Matrigel (Corning Inc., Corning, NY, cat. 354248) for the first three passages. The 354836-022-R-J1-PDC, 475296-252-R-J1-PDC, and 997726-040-R-J2-PDC lines were cultured in 6A media, which includes advanced DMEM/F-12 (Thermo Fisher Scientific, cat. 12634028), 10 mM HEPES (Thermo Fisher Scientific, cat. 15630080), 1X GlutaMAX supplement (Thermo Fisher Scientific, cat. 35050061), 0.1 mg/mL primocin (InvivoGen, San Diego, CA, cat. ant-pm-2), 10% defined fetal bovine serum, heat inactivated (HyClone Laboratories Inc., Logan, UT, cat. SH30070.03HI), 50% L-WRN conditioned media (ATCC, cat. CRL-3276), 1.25 mM N-Acetyl-L-cysteine (Sigma-Aldrich, cat. A9165), 10 mM nicotinamide (Sigma-Aldrich, cat. N0636), 1X B-27 supplement (Thermo Fisher Scientific, cat. 17504044), 1X N-2 supplement (Thermo Fisher Scientific, cat. 17502048), and 10 microM Y-27632 dihydrochloride (Tocris Bioscience, Bristol, United Kingdom, cat. 1254). The 624824-186-R-J2-PDC line was cultured in 6C/Colon 1B media, which includes all 6A media components plus 50 ng/mL human EGF recombinant protein (Thermo Fisher Scientific, cat. PHG0311). […]
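Further: spheroids exposed to agents for seven days before read-out.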

## CNC(=O)c1ccc(N2C(=S)N(c3ccc(C#N)c(C(F)(F)F)c3)C(=O)C2(C)C)cc1F + CC(Nc1ccc2c(c1)OCCn1cc(N3C(=O)OCC3C(F)F)nc1-2)C(N)=O
Second compound 0.00316 µM
  IC50: > 10 µM
Second compound 0.01 µM
  IC50: > 10 µM
Second compound 0.0316 µM
  IC50: > 10 µM
Second compound 0.1 µM
  IC50: > 10 µM
Second compound 0.316 µM
  IC50: > 10 µM
Second compound 1 µM
  IC50: > 10 µM
Second compound 0.00316 µM, first compound 0.0316 µM
  viability, T/C: 108%
Second compound 0.00316 µM, first compound 0.1 µM
  viability, T/C: 102%
Second compound 0.00316 µM, first compound 0.316 µM
  viability, T/C: 107%
Second compound 0.00316 µM, first compound 1 µM
  viability, T/C: 107%
Second compound 0.00316 µM, first compound 3.16 µM
  viability, T/C: 110%
Second compound 0.00316 µM, first compound 10 µM
  viability, T/C: 120%
Second compound 0.01 µM, first compound 0.0316 µM
  viability, T/C: 115%
Second compound 0.01 µM, first compound 0.1 µM
  viability, T/C: 100%
Second compound 0.01 µM, first compound 0.316 µM
  viability, T/C: 107%
Second compound 0.01 µM, first compound 1 µM
  viability, T/C: 101%
Second compound 0.01 µM, first compound 3.16 µM
  viability, T/C: 108%
Second compound 0.01 µM, first compound 10 µM
  viability, T/C: 117%
Second compound 0.0316 µM, first compound 0.0316 µM
  viability, T/C: 106%
Second compound 0.0316 µM, first compound 0.1 µM
  viability, T/C: 101%
Second compound 0.0316 µM, first compound 0.316 µM
  viability, T/C: 94.5%
Second compound 0.0316 µM, first compound 1 µM
  viability, T/C: 103%
Second compound 0.0316 µM, first compound 3.16 µM
  viability, T/C: 112%
Second compound 0.0316 µM, first compound 10 µM
  viability, T/C: 112%
Second compound 0.1 µM, first compound 0.0316 µM
  viability, T/C: 94.1%
Second compound 0.1 µM, first compound 0.1 µM
  viability, T/C: 93.9%
Second compound 0.1 µM, first compound 0.316 µM
  viability, T/C: 103%
Second compound 0.1 µM, first compound 1 µM
  viability, T/C: 98.2%
Second compound 0.1 µM, first compound 3.16 µM
  viability, T/C: 105%
Second compound 0.1 µM, first compound 10 µM
  viability, T/C: 110%
Second compound 0.316 µM, first compound 0.0316 µM
  viability, T/C: 94.7%
Second compound 0.316 µM, first compound 0.1 µM
  viability, T/C: 96.8%
Second compound 0.316 µM, first compound 0.316 µM
  viability, T/C: 99.6%
Second compound 0.316 µM, first compound 1 µM
  viability, T/C: 96.8%
Second compound 0.316 µM, first compound 3.16 µM
  viability, T/C: 102%
Second compound 0.316 µM, first compound 10 µM
  viability, T/C: 102%
Second compound 1 µM, first compound 0.0316 µM
  viability, T/C: 83.9%
Second compound 1 µM, first compound 0.1 µM
  viability, T/C: 100%
Second compound 1 µM, first compound 0.316 µM
  viability, T/C: 94.9%
Second compound 1 µM, first compound 1 µM
  viability, T/C: 92.1%
Second compound 1 µM, first compound 3.16 µM
  viability, T/C: 98.6%
Second compound 1 µM, first compound 10 µM
  viability, T/C: 106%
